Values of other authors as cited in patent US9943503B1, “Pharmaceutical composition for treating bacterial and viral infections” (priority 2017, dated 2018).

Test system: common cold
Settings: adults; review of evidence

Structure (SMILES)	prevention of the common cold, evidence
C=CCS[S+]([O-])CC=C (centres unmarked) [Allicin]	highly effective
O=C1O[C@H]([C@@H](O)CO)C(O)=C1O [vitamin C, ascorbic acid]	demonstrated benefit
